In paper PMC6259751, “Investigating Spectrum of Biological Activity of 4- and 5-Chloro-2-hydroxy-N-[2-(arylamino)-1-alkyl-2-oxoethyl]benzamides” (Molecules, 2011):
Values after ≈ are worked out from the molar mass of the structure shown. Values joined by “and” are separate entries in the source; they are usually repeats but may differ in a detail not shown here. Equal values may be shown once. Read-outs that look alike come from different tables or passages of the source.

Assays:
[1] = Lipophilicity determination by RP-HPLC (capacity factor k / log k); format: physicochemical; conditions: C18 column, MeOH 70% / H2O 30%, isocratic
Summary of the method: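 Isocratic RP-HPLC on end-capped C18 column, MeOH/H2O 70:30, 1.0 mL/min, 30 °C, UV 210 nm. Dead time from unretained KI; k = (tR − tD)/tD, log k taken as lipophilicity index on log P scale. Calculated log P/Clog P from two programs also reported.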

[2] = test system: Mycobacterium tuberculosis MTB CNCTC My 331/88; assay: In vitro antimycobacterial evaluation; format: cell-based; conditions: IC90 value
[3] = test system: Mycobacterium avium MA CNCTC My 330/88; assay: In vitro antimycobacterial evaluation; format: cell-based; conditions: IC90 value
[4] = test system: Mycobacterium kansasii MK CNCTC My 235/80; assay: In vitro antimycobacterial evaluation; format: cell-based; conditions: IC90 value
[5] = test system: Candida tropicalis 156; assay: In vitro antifungal susceptibility testing (broth microdilution); format: cell-based; conditions: M27-A2 for yeasts, IC80 value
[6] = test system: Trichophyton mentagrophytes 445; assay: as above; format: cell-based; conditions: M38-A for moulds, IC50 value, read-out: MIC TM
[7] = test system: photosynthetic electron transport (PET) in spinach chloroplasts; assay: Inhibition of photosynthetic electron transport (PET) in spinach chloroplasts; format: biochemical, Spinacia oleracea L.; conditions: DCPIP photoreduction
Description: Chloroplasts were prepared from spinach (Spinacia oleracea L.) according to Masarovicova and Kralova. The inhibition of photosynthetic electron transport (PET) in spinach chloroplasts was determined spectrophotometrically (Genesys 6, Thermo Scientific, USA), using an artificial electron acceptor 2,6-dichlorophenol-indophenol (DCIPP) according to Kralova et al., and the rate of photosynthetic electron transport was monitored as a photoreduction of DCPIP. The measurements were carried out in phosphate buffer (0.02 mol/L, pH 7.2) containing sucrose (0.4 mol/L), MgCl2 (0.005 mol/L) and NaCl (0.015 mol/L). The chlorophyll content was 30 mg/L in these experiments and the samples were irradiated (~100 W/m^2) from 10 cm distance with a halogen lamp (250 W) using a 4 cm water filter to prevent warming of the samples. The studied compounds were dissolved in DMSO due to their limited water solubility. […] The inhibitory efficiency of the studied compounds was expressed by IC50 values, i.e. by molar concentration of the compounds causing 50% decrease in the oxygen evolution rate relative to the untreated control.

[8] = format: physicochemical; conditions: for precipitation in the testing medium: antimycobacterial testing medium
Description: The discussed amides were tested against three Mycobacteria strains. […] Activities of some benzamides, especially against M. avium and M. kansasii, considerably exceeded the activity of isoniazid (INH) used as an internal standard. The discussed compounds can be divided according to the activities against individual Mycobacteria strains, and structure-activity relationships within Group 1, Group 2 and Group 4 can be discussed.

[9] = test system: Staphylococcus aureus CCM 4516/08; assay: In vitro antibacterial susceptibility testing (broth microdilution); conditions: read-out: MIC SA
[10] = test system: methicilin resistant Staphylococcus aureus H 5996/08; assay: as above; conditions: MRSA, read-out: MIC MRSA
[11] = test system: Staphylococcus epidermidis H 6966/08; assay: as above; conditions: read-out: MIC SE
[12] = test system: Enterococcus sp. J 14365/08; assay: as above; conditions: read-out: MIC EF

SMILES	log k [1]	MIC ([2]; 14h) [µM]	MIC ([2]; 21h) [µM]	MIC ([3]; 14h) [µM]	MIC ([3]; 21h) [µM]	MIC ([4]; 14h) [µM]	MIC ([4]; 21h) [µM]	MIC ([5]; 24h) [µM]	MIC ([5]; 48h) [µM]	MIC ([6]; 72h) [µM]	MIC ([6]; 120h) [µM]	IC50 [7] [µM]	MIC ([9]; CCM4516, 24 h) [µM]	MIC ([9]; CCM4516, 48 h) [µM]	MIC ([10]; 24 h) [µM]	MIC ([10]; 48 h) [µM]	MIC ([11]; H6966/08, 24 h) [µM]	MIC ([11]; H6966/08, 48 h) [µM]	MIC ([12]; SP.J14365/08, 24 h) [µM]	MIC ([12]; SP.J14365/08, 48 h) [µM]	also measured
C[C@H](NC(=O)c1cc(Cl)ccc1O)C(=O)Nc1cccc(Cl)c1 [8b]	0.41 and 0.4166	250 (≈ 88.3 µg/mL)	> 500	500 (≈ 177 µg/mL)	> 500	500 (≈ 177 µg/mL)	> 500	> 125	> 125	125 (≈ 44.2 µg/mL)	125 (≈ 44.2 µg/mL)	41.7	> 250	> 250	> 250	> 250	> 250	> 250	> 250	> 250	solubility in comparison with the initial esters [8]: lower solubility; precipitation in the testing medium [8]: precipitation in the testing medium
O=C(N[C@@H](Cc1ccccc1)C(=O)Nc1ccc(Cl)cc1)c1cc(Cl)ccc1O [8k]	0.7394	16 (≈ 6.87 µg/mL)	16 (≈ 6.87 µg/mL)	32 (≈ 13.7 µg/mL)	32 (≈ 13.7 µg/mL)	32 (≈ 13.7 µg/mL)	62.5 (≈ 26.8 µg/mL)	125 (≈ 53.7 µg/mL)	> 125	125 (≈ 53.7 µg/mL)	> 125	29.8	> 500	> 500	> 500	> 500	> 500	> 500	> 500	> 500	–
O=C(N[C@@H](Cc1ccccc1)C(=O)Nc1ccc(Cl)c(Cl)c1)c1cc(Cl)ccc1O [8q]	0.9485	125 (≈ 58 µg/mL)	> 1000	125 (≈ 58 µg/mL)	> 1000	250 (≈ 116 µg/mL)	> 1000	> 125	> 125	> 125	> 125	74.2	> 500	> 500	> 500	> 500	> 500	> 500	> 500	> 500	solubility in comparison with the initial esters [8]: lower solubility; precipitation in the testing medium [8]: precipitated from testing medium
O=C(N[C@H](Cc1ccccc1)C(=O)Nc1ccc(Cl)c(Cl)c1)c1cc(Cl)ccc1O [8r]	0.9408	125 (≈ 58 µg/mL)	> 1000	125 (≈ 58 µg/mL)	> 1000	250 (≈ 116 µg/mL)	> 1000	> 125	> 125	> 125	> 125	–	> 500	> 500	> 500	> 500	> 500	> 500	> 500	> 500	solubility in comparison with the initial esters [8]: lower solubility; precipitation in the testing medium [8]: precipitated from testing medium
CC(C)[C@H](NC(=O)c1cc(Cl)ccc1O)C(=O)Nc1ccc(Br)cc1 [8s]	0.6709	62.5 (≈ 26.6 µg/mL)	62.5 (≈ 26.6 µg/mL)	62.5 (≈ 26.6 µg/mL)	62.5 (≈ 26.6 µg/mL)	62.5 (≈ 26.6 µg/mL)	125 (≈ 53.2 µg/mL)	> 125	> 125	> 125	> 125	26.2	> 125	> 125	> 125	> 125	> 125	> 125	> 125	> 125	–
O=C(N[C@@H](Cc1ccccc1)C(=O)Nc1ccc(Br)cc1)c1cc(Cl)ccc1O [8u]	0.7779	32 (≈ 15.2 µg/mL)	32 (≈ 15.2 µg/mL)	250 (≈ 118 µg/mL)	250 (≈ 118 µg/mL)	62.5 (≈ 29.6 µg/mL)	125 (≈ 59.2 µg/mL)	500 (≈ 237 µg/mL)	> 500	500 (≈ 237 µg/mL)	> 500	31.2	> 125	> 125	> 125	> 125	> 125	> 125	> 125	> 125	–
C[C@H](NC(=O)c1ccc(Cl)cc1O)C(=O)Nc1ccc(Cl)cc1 [9a]	0.4934	62.5 (≈ 22.1 µg/mL)	62.5 (≈ 22.1 µg/mL)	125 (≈ 44.2 µg/mL)	125 (≈ 44.2 µg/mL)	125 (≈ 44.2 µg/mL)	125 (≈ 44.2 µg/mL)	> 250	> 250	> 250	> 250	61.5	250 (≈ 88.3 µg/mL)	500 (≈ 177 µg/mL)	500 (≈ 177 µg/mL)	500 (≈ 177 µg/mL)	250 (≈ 88.3 µg/mL)	250 (≈ 88.3 µg/mL)	500 (≈ 177 µg/mL)	500 (≈ 177 µg/mL)	–
CC(C)[C@H](NC(=O)c1ccc(Cl)cc1O)C(=O)Nc1ccc(Cl)cc1 [9c]	0.6839	62.5 (≈ 23.8 µg/mL)	62.5 (≈ 23.8 µg/mL)	62.5 (≈ 23.8 µg/mL)	125 (≈ 47.7 µg/mL)	62.5 (≈ 23.8 µg/mL)	62.5 (≈ 23.8 µg/mL)	> 125	> 125	> 125	> 125	23.8	> 500	> 500	> 500	> 500	> 500	> 500	> 500	> 500	–
